Key:
S. aureus (Sa) = test: Broth microdilution minimum inhibitory concentration (MIC), CLSI; type: cell-based; conditions: growth medium supplemented with sodium bicarbonate; for MIC: Staphylococcus aureus, read-out: Sa + bicarb MIC
How it was run: (§1)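 CLSI broth microdilution with modification: 8-point two-fold compound dilutions in CAMHB, CAMHB plus 6.25 or 25 mM sodium bicarbonate, or CAMHB plus 0–50% heat-inactivated human serum. Inoculum 5×10^4 CFU/well from log-phase cultures adjusted to 0.5 McFarland; triplicate wells.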

E. coli (Ec) = test: as above; type: cell-based; conditions: growth medium supplemented with sodium bicarbonate; for MIC: Escherichia coli, read-out: E. coli + bicarb MIC
How it was run: as §1

E. faecalis (Ef) = test: as above; type: cell-based; conditions: growth medium supplemented with sodium bicarbonate; for MIC: Enterococcus faecalis, read-out: Ef + bicarb MIC
How it was run: as §1

P. aeruginosa (Pa) = test: as above; type: cell-based; conditions: growth medium supplemented with sodium bicarbonate; for MIC: Pseudomonas aeruginosa, read-out: Pa MIC + bicarb
How it was run: as §1

A. baumannn (Ab) = test: as above; type: cell-based; conditions: for MIC: Acinetobacter baumannii, read-out: Ab + bicarb MIC
How it was run: as §1

[1] = tested on: E. coli S30 extract (bacterial protein synthesis); test: E. coli S30 extract coupled transcription-translation luciferase assay (inhibition of bacterial protein synthesis); type: biochemical; conditions: class by IC50 or % inhibition @ 1 μM, read-out: S30 IC50 (μM/% inhib.)
How it was run: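 Coupled transcription-translation in E. coli S30 circular-DNA extract expressing luciferase from pBESTluc, with 8-point 2-fold compound dilutions; 1 hour at 37 °C, stopped at 4 °C. Luminescence read; % inhibition versus no-inhibitor wells, no-DNA wells as background.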

[2] = target: Rabbit Reticulocyte Lysate (eukaryotic protein synthesis); test: Rabbit reticulocyte lysate luciferase assay (inhibition of eukaryotic protein synthesis); type: biochemical; conditions: class by IC50 or % inhibition @ 1 μM, read-out: Rabbit reticulocyte IC50 (μM/% inhib.)
How it was run: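 In vitro translation of luciferase control RNA in nuclease-treated rabbit reticulocyte lysate with amino acid mixture, compounds in 2-fold serial dilution, 90 minutes at 30° C. Luminescence read after luciferase reagent; % inhibition relative to water no-inhibitor controls, with no-RNA background wells.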

Row | Structure (SMILES) | MIC (S. aureus (Sa)) | MIC (E. coli (Ec)) | MIC (E. faecalis (Ef)) | MIC (P. aeruginosa (Pa)) | MIC (A. baumannn (Ab)) | IC50 [1] | IC50 [2] | Ef + bicarb MIC (E. faecalis (Ef)) | Sa + bicarb MIC (S. aureus (Sa)) | E. coli + bicarb MIC (E. coli (Ec)) | Pa MIC + bicarb (P. aeruginosa (Pa)) | Ab + bicarb MIC (A. baumannn (Ab); A. baumannii, growth medium supplemented with sodium bicarbonate)
1 | CC(C)(N)C(=O)N1CCN(C(=O)Nc2ccn(-c3ccc(CCN4CCC5(CCC5N)CC4)cc3)c(=O)n2)CC1 (centres unmarked) [Compound 95] | < 8 mg/L | < 8 mg/L | > 32 mg/L | > 32 mg/L | > 32 mg/L | < 0.5 µM | ≥ 1 µM |  |  |  |  | 
2 | CC(C)(N)C(=O)N1CCN(C(=O)Nc2ccn(-c3ccc(CCN4CC5CC(N)C5C4)cc3)c(=O)n2)CC1 (centres unmarked) [Compound 96] | < 8 mg/L | < 8 mg/L | < 8 mg/L | 8 to 32 mg/L | > 32 mg/L | < 0.5 µM | ≥ 1 µM |  |  |  |  | 
3 | C[C@@](N)(CO)C(=O)N1CCN(C(=O)Nc2ccn(-c3ccc(CCN4CCC5CC5(N)C4)cc3)c(=O)n2)CC1 (some centres unmarked) [Compound 99] | < 8 mg/L | < 8 mg/L | 8 to 32 mg/L | > 32 mg/L | > 32 mg/L | 0.5 to 1 µM | ≥ 1 µM |  |  |  |  | 
4 | CC(C)(N)C(=O)N1CCN(C(=O)Nc2ccn(-c3ccc(CCN4CCC5CC5(N)C4)c(F)c3)c(=O)n2)CC1 (centres unmarked) [Compound 100] | < 8 mg/L | < 8 mg/L | < 8 mg/L | > 32 mg/L | 8 to 32 mg/L | < 0.5 µM | ≥ 1 µM |  |  |  |  | 
5 | Cc1cc(-n2ccc(NC(=O)N3CCN(C(=O)C(C)(C)N)CC3)nc2=O)ccc1CCN1CCC2CC2(N)C1 (centres unmarked) [Compound 101] | < 8 mg/L | < 8 mg/L | < 8 mg/L | > 32 mg/L | 8 to 32 mg/L | < 0.5 µM | ≥ 1 µM |  |  |  |  | 
6 | CC(C)(N)C(=O)N1CCN(C(=O)Nc2ccn(-c3ccc(CCN4C[C@@H]5[C@@H](CN)[C@@H]5C4)c(C(F)(F)F)c3)c(=O)n2)CC1 [Compound 102] | < 8 mg/L | < 8 mg/L | 8 to 32 mg/L | 8 to 32 mg/L | > 32 mg/L | < 0.5 µM | ≥ 1 µM |  |  |  |  | 
7 | CC(C)(N)C(=O)N1CCN(C(=O)Nc2ccn(-c3ccc(CCN4CCC5CC5(N)C4)c(C(F)(F)F)c3)c(=O)n2)CC1 (centres unmarked) [Compound 103] | 8 to 32 mg/L | 8 to 32 mg/L | 8 to 32 mg/L | > 32 mg/L | > 32 mg/L | 0.5 to 1 µM | ≥ 1 µM |  |  |  |  | 
8 | CC(C)(N)C(=O)N1CCN(C(=O)Nc2ccn(-c3ccc(C(N)C(=O)N4C[C@@H]5[C@@H](N)[C@@H]5C4)cc3)c(=O)n2)CC1 (some centres unmarked) [Compound 105] | > 32 mg/L | > 32 mg/L | > 32 mg/L | > 32 mg/L | > 32 mg/L | ≥ 1 µM | ≥ 1 µM |  |  |  |  | 
9 | CC(C)(N)C(=O)N1CCN(C(=O)Nc2ccn(-c3ccc(CCN4C5CCC4CC(N)C5)cc3)c(=O)n2)CC1 (centres unmarked) [Compound 106] | < 8 mg/L | < 8 mg/L |  | > 32 mg/L | > 32 mg/L | ≥ 1 µM | ≥ 1 µM | ++ (An MIC value (μg/mL) that is 8 μg/mL or greater and less than 32 μg/mL) |  |  |  | 
10 | CC(C)(N)C(=O)N1CCN(C(=O)Nc2ccn(-c3ccc(CCN4CC5(CCC5N)C4)cc3)c(=O)n2)CC1 (centres unmarked) [Compound 107] | < 8 mg/L | < 8 mg/L | 8 to 32 mg/L | > 32 mg/L | > 32 mg/L | ≥ 1 µM | ≥ 1 µM |  |  |  |  | 
11 | CC(C)(N)C(=O)N1CCN(C(=O)Nc2ccn(-c3ccc(CCN4C5CCC4CC(N)C5)cc3)c(=O)n2)CC1 (centres unmarked) [Compound 108] |  |  |  |  |  | ≥ 1 µM | ≥ 1 µM | + (An MIC (μg/mL) value that is 32 μg/mL or greater) | +++ (An MIC value (μg/mL) that is less than 8 μg/mL) | +++ (An MIC value (μg/mL) that is less than 8 μg/mL) | + (An MIC (μg/mL) value that is 32 μg/mL or greater) | + (An MIC (μg/mL) value that is 32 μg/mL or greater)

Reference: US12692253B2, “Antimicrobial compounds and methods” (Curza Global, LLC, priority 2019, dated 2026)
